{
  "source": "patent US12012385B1",
  "about": "“4,5-bis(4-methoxyphenyl)-1-hexyl-2-phenyl-1H-imidazole as an antimicrobial compound” (KING FAISAL UNIVERSITY, priority 2023, dated 2024)",
  "key": {"Ps. aeruginosa": {"system": "Ps. aeruginosa", "test": "Antimicrobial testing, agar dilution method", "type": "cell-based, Pseudomonas aeruginosa", "settings": "after 10, 20, 40 and 60 min at all dilutions 1:100, 1:200, 1:400, 1:800", "description": "(§1) The antimicrobial properties of the, 5-bis(4-methoxyphenyl)-1-hexyl-2-phenyl-1H-imidazole was studied by the method of agar dilution. Test solutions of each compound was prepared in concentration of 1% using dimethylformamide as a solvent then they are diluted in physiological solution to obtain the final experimental dilutions 1:100, 1:200, 1:400, 1:800. The effect of these substances are compared with furacillin in a controllable study. The testing microbes used were gram positive bacteria St. aureus, gram negative bacteria E. Coli, Ps. aeruginosa and Candida albicans fungi were taken. The experiments used for this survey were meat-pentonlu agar (EPA) for cultivation of bacteria and Saburo environment for fungi. Each experiment used 1 ml of test solution on each plate 500 min. Add 2 drops of emulsified with microbes feel. All experimental samples were taken from the agar after 10, 20, 40, 60 minutes in the environment on the basis of Patrk planted. Bacteria were cultivated at a temperature of 37° C. for 1 day and the mushroom was kept in a thermostat for […] at a temperature of 28° C. Then the results were checked."}, "Candida albicans": {"system": "Candida albicans", "test": "Antimicrobial testing, agar dilution method", "type": "cell-based", "settings": "after 10, 20, 40 and 60 min at all dilutions 1:100, 1:200, 1:400, 1:800", "description": "as §1"}, "E. Coli": {"system": "E. Coli", "test": "Antimicrobial testing, agar dilution method", "type": "cell-based, Escherichia coli", "settings": "after 10, 20, 40 and 60 min at all dilutions 1:100, 1:200, 1:400, 1:800", "description": "as §1"}, "St. aureus": {"system": "St. aureus", "test": "Antimicrobial testing, agar dilution method", "type": "cell-based, Staphylococcus aureus", "settings": "after 10, 20, 40 and 60 min at all dilutions 1:100, 1:200, 1:400, 1:800", "description": "as §1"}},
  "data": [
    {"smiles": "CCCCCCn1c(-c2ccccc2)nc(-c2ccc(OC)cc2)c1-c1ccc(OC)cc1", "note": "[4,5-bis(4-methoxyphenyl)-1-hexyl-2-phenyl-1H-imidazole]", "values": [
      {"measurement": "inhibition activity (in words)", "setting": "Ps. aeruginosa", "result": "higher inhibition activity"},
      {"measurement": "inhibition activity (in words)", "setting": "Candida albicans", "result": "higher inhibition activity"},
      {"measurement": "melting point", "result": "177 to 179", "unit": "°C"},
      {"measurement": "inhibition activity (in words)", "setting": "E. Coli", "result": "higher inhibition activity"},
      {"measurement": "inhibition activity (in words)", "setting": "St. aureus", "result": "higher inhibition activity"}
    ]}
  ]
}
